{
  "source": "patent US9603892B2",
  "about": "“Peptide compound for inhibiting restenosis and promoting re-endothelialization and method for preparing the same” (Chonnam National University Hospital, priority 2014, dated 2017)",
  "system": "vascular smooth muscle cell (SMC)",
  "test": "Effect on proliferation of vascular smooth muscle cell (SMC), XTT assay",
  "assay_type": "cell-based",
  "conditions": "1 uM; XTT at 1, 4 and 7 days; versus untreated control, which grew until 7 days; FIG. 1",
  "experimental": "As cells used in a cell culture, the vascular smooth muscle cell (SMC) which is a smooth muscle cell, and the human umbilical vein endothelial cell (HUVEC) which is the cell for promoting vascular re-endothelialization were purchased from Korea Cell Line Bank, respectively. The cell culture was performed by culturing the vascular smooth muscle cell (SMC) and the human umbilical vein endothelial cell (HUVEC) in Dulbecoco's modified eagle medium (DMEM) with 10% fetal bovine serum (FBS) under conditions of 37° C. and 5% CO2. […]\n(§1) 5×10^4 of SMC cells cultured according to Example 2 were cultured in the 24-well cell culture plate and then treated with 1 uM of the peptide compound prepared by Example 2 (hereinafter, referred to as ‘EVR-P’). […] After the reaction, 200 ul of the culture medium was transferred from each well to a 96 well cell culture dish, and degree of color change was measured from absorbance at a 450 nm wavelength by a spectroscopy.\nas §1, with “the known Everolimus (EVR)(LC Laboratories).” for “the peptide compound prepared by Example 2 (hereinafter, referred to as ‘EVR-P’).”, “to the” for “to a”",
  "data": [
    {"smiles": "CO[C@H]1C[C@@H]2CC[C@@H](C)[C@@](O)(O2)C(=O)C(=O)N2CCCC[C@H]2C(=O)O[C@H]([C@H](C)C[C@@H]2CC[C@@H](OCCO)[C@H](OC)C2)CC(=O)[C@H](C)/C=C(\\C)[C@@H](O)[C@@H](OC)C(=O)[C@H](C)C[C@H](C)/C=C/C=C/C=C/1C", "note": "[EVR, Everolimus]", "values": [
      {"measurement": "SMC cell proliferation (XTT, absorbance at 450 nm)", "value": "cell proliferation was inhibited"}
    ]}
  ]
}
